# Experiments:
# MCF-7/ADR tumours = experiment: CSC marker status in in vivo treated MCF-7/ADR tumours (flow cytometry); set-up: species or system mice; details: treated 3 times in a week; 1 nmol PEG-chimera, 5 mg/kg doxorubicin; n=8
# Description: A 20-kDa PEG was attached to the 5′-end of siRNA-aptamer-chimera in order to extend its systemic circulation time. […] Day 2 after the last (third) treatment, tumours were removed, its weight determined and the percentage of breast cancer stem cell marker (EpCAM^+/CD44^+/CD24^−) positive cells in the treatment groups and various control groups was studied via flow cytometray.
# MCF-7/ADR tumours ([…]) were treated 3 times in a week with 1 nmol PEG-chimera+5 mg/kg doxorubicin. Single cell suspension was prepared for flow cytometry (n=8). Remarks
# [1] = tested on: PLC/PRF/5 hepatocellular carcinoma cell line; experiment: Tumoursphere formation in 96-well, PLC/PRF/5; assay type: cell-based, human
# HT29 cell populations = experiment: Extreme limiting dilution/xenotransplantation assay (ELDA) of treated HT29 tumours; assay type: in vivo, NOD/SCID mice; details: 9 weeks after inoculation
# Excerpt: The inventor first studied whether the aptamer-Dox conjugate could efficiently target tumour in vivo via live animal imaging with an on-site IVIS Lumina II imaging station. […] The ability of aptamer-Dox to target CSC was further tested in vivo using the gold standard extreme limiting dilution/xenotransplantation assay (ELDA). To this end, the inventor injected 1×10^6 HT29 cells s.c. into NOD/SCID mice. When tumours reached a size of 3 mm, the mice were randomized and treated serially for 3 days at a daily dose of 5 mg/Kg of either free Dox, EpCAM aptamer-Dox or control aptamer-Dox via tail vein injection. Mice were sacrificed one week after the last treatment. […] The experiment as repeated and single cell suspensions prepared from the treated tumours (as in FIG. 14) and ELDA (Extreme limiting dilution analysis) performed to assess the effect on CSC frequency.
# MCF7/ADR tumour = experiment: Xenotransplantation-LDA of in vivo treated MCF7/ADR tumours; details: 1 nmole chimera, 5 mg/kg Dox, Day 50
# Description: An orthotopic breast cancer model was established by implanting 3×10^6 MCF7/ADR cells (mixed with Matrigel) per site in NOD-SCID mice. When tumours reached a volume of ˜200 mm^3, we started treatment via tail vein injection. The mice (n=5) were treated at Day 1, 3, 5, with i.v. (bolus) injection of 1 nmole of EpCAM aptamer-siRNA chimera; and Day 2, 4, 6, with i.v. (bolus) injection of 5 mg/kg doxorubicin. The animals were euthanized on Day 10 and tumours harvested and subjected to xenotransplantation and in vivo extreme limiting dilution analysis.
# HT29 spheres = experiment: FACS analysis of CSC markers in treated HT29 spheres; assay type: cell-based, human; details: HT29 spheres after treatment
# Excerpt: Salinomycin (Sal), known to target CSC^23, was used as a positive control to validate our assays.
# HT29 cells = experiment: Tumour formation ex vivo: in vitro treated HT29 cells xenotransplanted; set-up: species or system NOD/SCID mice; details: cells treated 3 μM, 5 days, Day 50
# Excerpt: As sphere formation is a surrogate assay for in vivo tumourigenicity, the inventor examined whether the in vitro treated cells could generate tumours upon xenotransplantation. […] As shown in FIG. 12 and Table 4, free Dox-treated cells formed tumours in every mouse studied but no tumour was detected in mice cells (Table 4) at Day 50 after receiving aptamer-Dox-treated tumour implantation.
# HT29 colon cancer cells = experiment: Tumoursphere formation in 96-well, HT29; assay type: cell-based, human; details: 5 days; for Number of wells with sphere: HT29, 3 μM Dox equivalent
# Description: Under non-adherent and serum-free conditions, only the cancer stem cells (CSCs) and progenitor cells survive and undergo self-renewal as well as proliferate to form tumour spheres. The inventor studied the ability of aptamer-Dox to target cancer stem cells by plating various cell doses of single-cell suspension of HT29 colon cancer cells in ultra-low attachment 96-wells in the presence of 3 μM of free Dox, 3 μM equivalent Dox conjugated with aptamer, 3 μM Dox-negative control aptamer or vehicle control for 5 days. Tumour spheres (with a size >50 μm) were enumerated.
# MCF7/ADR cells = experiment: Tumourigenicity ex vivo: treated MCF7/ADR cells xenotransplanted, extreme limiting dilution; assay type: in vivo, NOD/SCID mice; details: 20 nM chimera, 300 nM Dox, Day 40
# Description: The inventor hypothesized that the CSC-targeted delivery of survivin siRNA would make CSC sensitive to Dox. Indeed, after treatment (without transfection reagent) with 20 nM chimera plus 300 nM Dox for 72 h, there was a ˜80% reduction in the number of mammospheres in both the first and second round of tumoursphere assays (not shown), indicating a significant portion of cancer stem cells had been eliminated. The inventor further confirmed the effect of the chimera plus Dox on cancer stem cells' tumourigenicity by xenotransplanting treated cells into the 4th inguinal mammary fat pads of NOD/SCID mice coupled with an extreme limiting dilution analysis to assess CSC frequency (at Day 40 alter implantation) (Table 6).
compound,measurement,setting,value
"COc1cccc2c1C(=O)c1c(O)c3c(c(O)c1C2=O)C[C@@](O)(C(=O)CO)C[C@@H]3O[C@H]1C[C@H](N)[C@H](O)[C@H](C)O1 [Free Dox, doxorubicin]",Percentage EpCAM+/CD44+/CD24−,MCF-7/ADR tumours,11.6
same,Number of wells with sphere,[1]; 1 cell seeded/well,0/10
same,Number of wells with sphere,[1]; 10 cells seeded/well,10/10
same,Number of wells with sphere,[1]; 100 cells seeded/well,10/10
same,Number of wells with sphere,[1]; 200 cells seeded/well,10/10
same,No. tumour/No. mice,HT29 cell populations; 1 × 10^4 cells injected,0/6
same,No. tumour/No. mice,HT29 cell populations; 1 × 10^5 cells injected,6/6
same,No. tumour/No. mice,HT29 cell populations; 1 × 10^6 cells injected,6/6
same,No. of tumours/no. of mice,MCF7/ADR tumour; 0.5 × 10^6 cells injected,0/4
same,No. of tumours/no. of mice,MCF7/ADR tumour; 1 × 10^6 cells injected,1/4
same,No. of tumours/no. of mice,MCF7/ADR tumour; 3 × 10^6 cells injected,3/4
same,No. of tumours/no. of mice,MCF7/ADR tumour; 5 × 10^6 cells injected,4/4
same,EpCAM^high/CD44^high/CD24^high cells,HT29 spheres,91%
same,No. tumour/No. mice,HT29 cells; 1 × 10^5 cells injected,5/5
same,No. tumour/No. mice,HT29 cells; 1 × 10^6 cells injected,5/5
same,effect on HT29 tumour sphere formation (in words),HT29 colon cancer cells; 3 μM Dox,no effect
same,Number of wells with sphere,HT29 colon cancer cells; 1 cell seeded/well,0/10
same,Number of wells with sphere,HT29 colon cancer cells; 10 cells seeded/well,10/10
same,Number of wells with sphere,HT29 colon cancer cells; 100 cells seeded/well,10/10
same,Number of wells with sphere,HT29 colon cancer cells; 200 cells seeded/well,10/10
same,No. of tumours/no. of mice,MCF7/ADR cells; 0.5 × 10^6 cells injected,0/5
same,No. of tumours/no. of mice,MCF7/ADR cells; 1 × 10^6 cells injected,1/5
same,No. of tumours/no. of mice,MCF7/ADR cells; 3 × 10^6 cells injected,3/5
same,No. of tumours/no. of mice,MCF7/ADR cells; 5 × 10^6 cells injected,5/5
